Experimental data from patent publication US20250101129A1, “AFFINITY SUBSTANCE, COMPOUND, AND ANTIBODY AND THEIR SALTS” (Ajinomoto Co., Inc., priority 2022, published 2025).

Test system: CD3-activated human T cells containing PD-1-positive cells
Assay: Flow cytometry binding to CD3-activated human T cells
Format: cell-based
Settings: primary antibody final concentration 20 g/mL as printed, Alexa Fluor 488 anti-human IgG secondary
Experimental: The cells used were CD3-activated human T cells containing HER2-positive SKBR-3 cells, EGFR-positive A-431 cells, and PD-1-positive cells.
200,000 cells cultured in D-MEM medium (Thermo Fisher Scientific, Inc.) supplemented with 10% FBS (Thermo Fisher Scientific, Inc.) were collected, and 20 μL of PBS containing Human TruStain FcX (Biolegend) was added, followed by blocking of Fc receptors on ice for 10 minutes. The primary antibody reaction was performed by adding the above-described antibodies as primary antibodies to a cell staining buffer (PBS containing 1% FBS) to a final concentration of 20 g/mL, adding 20 μL of the mixtures to the cells, and incubating them for 20 minutes on ice. The cells after the primary antibody reaction were washed twice with the cell staining buffer. The second antibody reaction was performed by adding 40 μL of Goat anti-Human IgG (H+L) Cross-Adsorbed Secondary Antibody, Alexa Fluor™488 (Thermo Fisher Scientific, Inc.) diluted with the cell staining buffer to 10 g/mL as the second antibody to the cells, and incubating the cells on ice for 20 minutes. The cells were washed twice with the cell staining buffer, and then subjected to analysis using Attune NxT Flow Cytometer (Thermo Fisher Scientific, Inc.).

pembrolizumab
cells in which fluorescence was observed (positive rate), CD3-activated human T cells: about 23%
